{"source": "paper PMC10502144", "about": "“Anti-methicillin-resistant Staphylococcus aureus activity and safety evaluation of 14-O-[(5-ethoxycarbonyl-4,6-dimethylpyrimidine-2-yl) thioacetyl] mutilin (EDT)” (Scientific Reports, 2023)", "key": {"[1]": {"tested_on": "CYP3A4", "conditions": "cited from earlier work"}, "[2]": {"tested_on": "clinical isolates of MRSA", "assay": "MIC by broth serial-dilution against 48 clinical isolates of MRSA", "type": "cell-based, methicillin-resistant Staphylococcus aureus", "conditions": "Staphylococcus aureus; for MIC: MRSA", "protocol": "The tests against 48 clinical isolates of MRSA from dairy farms in 4 different provinces in China[37] were conducted in triplicate, using broth serial-dilution method in 96-well plates according to CLSI reference methods. Briefly, EDT and tiamulin fumarate used as referent drug were dissolved in 25% dimethyl sulfoxide (DMSO) to a solution with concentration of 64 μg/mL. The obtained 100 μL solutions were then added into the first column of the 96-well plate, and diluted to the tenth well with serial twofold dilutions. The last two wells were used as positive controls. The 100 μL bacterial suspension was diluted in MHB to give a final organism density of to 10^5 ~ 10^6 colony-forming unit (CFU) per 1 mL and added to all the wells, followed by incubating at 37 °C for 24 h. […] The results were expressed as an average of the MICs obtained from three independent experiments."}}, "note": "Where a name gives a salt, the structure may show the parent alone. Read-outs that look alike come from different tables or passages of the source.", "data": [{"smiles": "C=C[C@]1(C)C[C@@H](OC(=O)CSCCN(CC)CC)[C@]2(C)[C@H](C)CC[C@]3(CCC(=O)[C@H]32)[C@@H](C)[C@@H]1O", "note": "[tiamulin, Tiamulin fumarate, reference compound]", "values": [{"measurement": "IC50", "setting": "[1]", "value": 1600, "unit": "nM"}, {"measurement": "MIC", "setting": "[2]; range over 48 clinical isolates of MRSA, read-out: MIC values against 48 strains", "value": "0.125 to 1", "unit": "µg/mL"}, {"measurement": "MIC", "setting": "[2]; strain CX1, read-out: MIC", "value": 0.5, "unit": "µg/mL"}, {"measurement": "MIC", "setting": "[2]; strain CX2, read-out: MIC", "value": 0.5, "unit": "µg/mL"}, {"measurement": "MIC", "setting": "[2]; strain CX5, read-out: MIC", "value": 0.5, "unit": "µg/mL"}, {"measurement": "MIC", "setting": "[2]; strain CX6, read-out: MIC", "value": 0.5, "unit": "µg/mL"}, {"measurement": "MIC", "setting": "[2]; strain CX7, read-out: MIC", "value": 0.5, "unit": "µg/mL"}, {"measurement": "MIC", "setting": "[2]; strain CX9, read-out: MIC", "value": 1, "unit": "µg/mL"}, {"measurement": "MIC", "setting": "[2]; strain HG1, read-out: MIC", "value": 0.25, "unit": "µg/mL"}, {"measurement": "MIC", "setting": "[2]; strain HG2, read-out: MIC", "value": 0.5, "unit": "µg/mL"}, {"measurement": "MIC", "setting": "[2]; strain HG3, read-out: MIC", "value": 0.5, "unit": "µg/mL"}, {"measurement": "MIC", "setting": "[2]; strain HG4, read-out: MIC", "value": 0.5, "unit": "µg/mL"}, {"measurement": "MIC", "setting": "[2]; strain HG5, read-out: MIC", "value": 0.5, "unit": "µg/mL"}, {"measurement": "MIC", "setting": "[2]; strain HG6, read-out: MIC", "value": 0.5, "unit": "µg/mL"}, {"measurement": "MIC", "setting": "[2]; strain HG7, read-out: MIC", "value": 0.5, "unit": "µg/mL"}, {"measurement": "MIC", "setting": "[2]; strain QY4, read-out: MIC", "value": 0.5, "unit": "µg/mL"}, {"measurement": "MIC", "setting": "[2]; strain QY5, read-out: MIC", "value": 0.5, "unit": "µg/mL"}, {"measurement": "MIC", "setting": "[2]; strain QY6, read-out: MIC", "value": 0.5, "unit": "µg/mL"}, {"measurement": "MIC", "setting": "[2]; strain QY8, read-out: MIC", "value": 0.5, "unit": "µg/mL"}, {"measurement": "MIC", "setting": "[2]; strain QY10, read-out: MIC", "value": 0.5, "unit": "µg/mL"}, {"measurement": "MIC", "setting": "[2]; strain SH3, read-out: MIC", "value": 0.5, "unit": "µg/mL"}, {"measurement": "MIC", "setting": "[2]; strain SH4, read-out: MIC", "value": 0.5, "unit": "µg/mL"}, {"measurement": "MIC", "setting": "[2]; strain SH6, read-out: MIC", "value": 0.5, "unit": "µg/mL"}, {"measurement": "MIC", "setting": "[2]; strain SH7, read-out: MIC", "value": 0.5, "unit": "µg/mL"}, {"measurement": "MIC", "setting": "[2]; strain SH8, read-out: MIC", "value": 0.25, "unit": "µg/mL"}, {"measurement": "MIC", "setting": "[2]; strain SH9, read-out: MIC", "value": 0.5, "unit": "µg/mL"}, {"measurement": "MIC", "setting": "[2]; strain SH10, read-out: MIC", "value": 0.5, "unit": "µg/mL"}, {"measurement": "MIC", "setting": "[2]; strain SH11, read-out: MIC", "value": 0.5, "unit": "µg/mL"}, {"measurement": "MIC", "setting": "[2]; strain SH12, read-out: MIC", "value": 0.5, "unit": "µg/mL"}, {"measurement": "MIC", "setting": "[2]; strain SH13, read-out: MIC", "value": 0.5, "unit": "µg/mL"}, {"measurement": "MIC", "setting": "[2]; strain SH14, read-out: MIC", "value": 0.125, "unit": "µg/mL"}, {"measurement": "MIC", "setting": "[2]; strain SH15, read-out: MIC", "value": 0.5, "unit": "µg/mL"}, {"measurement": "MIC", "setting": "[2]; strain SX5, read-out: MIC", "value": 0.5, "unit": "µg/mL"}, {"measurement": "MIC", "setting": "[2]; strain SX6, read-out: MIC", "value": 1, "unit": "µg/mL"}, {"measurement": "MIC", "setting": "[2]; strain SX7, read-out: MIC", "value": 0.5, "unit": "µg/mL"}, {"measurement": "MIC", "setting": "[2]; strain SX8, read-out: MIC", "value": 0.5, "unit": "µg/mL"}, {"measurement": "MIC", "setting": "[2]; strain SX9, read-out: MIC", "value": 0.5, "unit": "µg/mL"}, {"measurement": "MIC", "setting": "[2]; strain SX10, read-out: MIC", "value": 0.5, "unit": "µg/mL"}, {"measurement": "MIC", "setting": "[2]; strain SX16, read-out: MIC", "value": 1, "unit": "µg/mL"}, {"measurement": "MIC", "setting": "[2]; strain SX17, read-out: MIC", "value": 0.5, "unit": "µg/mL"}, {"measurement": "MIC", "setting": "[2]; strain SX18, read-out: MIC", "value": 0.5, "unit": "µg/mL"}, {"measurement": "MIC", "setting": "[2]; strain ZY1, read-out: MIC", "value": 0.5, "unit": "µg/mL"}, {"measurement": "MIC", "setting": "[2]; strain ZY2, read-out: MIC", "value": 0.5, "unit": "µg/mL"}, {"measurement": "MIC", "setting": "[2]; strain ZY3, read-out: MIC", "value": 0.25, "unit": "µg/mL"}, {"measurement": "MIC", "setting": "[2]; strain ZY4, read-out: MIC", "value": 0.5, "unit": "µg/mL"}, {"measurement": "MIC", "setting": "[2]; strain ZY5, read-out: MIC", "value": 0.5, "unit": "µg/mL"}, {"measurement": "MIC", "setting": "[2]; strain ZY6, read-out: MIC", "value": 1, "unit": "µg/mL"}, {"measurement": "MIC", "setting": "[2]; strain ZY7, read-out: MIC", "value": 0.5, "unit": "µg/mL"}, {"measurement": "MIC", "setting": "[2]; strain ZY8, read-out: MIC", "value": 1, "unit": "µg/mL"}, {"measurement": "MIC", "setting": "[2]; strain ZY9, read-out: MIC", "value": 0.25, "unit": "µg/mL"}, {"measurement": "inhibition at 0.0625 µg/mL", "setting": "[2]; at 0.0625 µg/mL, 48 clinical isolates of MRSA, read-out: strains inhibited", "value": 0, "unit": "%"}]}]}
